Reference: ChEMBL document CHEMBL1201862, “PubChem BioAssay data set” (2004)
Calls of active or inactive are those of the source.

Tests used:
[1] = target: Eukaryotic translation initiation factor 4H (Homo sapiens, UniProt Q15056); experiment: human eIF4H binding inhibitors, primary screen, translation initiation inhibitor project, biochemical, uHTS, fluorescence polarization (AID 2012)
[2] = target: Polyadenylate-binding protein 1 (Homo sapiens, UniProt P11940); experiment: PABP poly(A) RNA binding inhibitors, primary screen, biochemical, fluorescence polarization, uHTS (AID 2014)
Sequence of Polyadenylate-binding protein 1 (P11940 whole entry): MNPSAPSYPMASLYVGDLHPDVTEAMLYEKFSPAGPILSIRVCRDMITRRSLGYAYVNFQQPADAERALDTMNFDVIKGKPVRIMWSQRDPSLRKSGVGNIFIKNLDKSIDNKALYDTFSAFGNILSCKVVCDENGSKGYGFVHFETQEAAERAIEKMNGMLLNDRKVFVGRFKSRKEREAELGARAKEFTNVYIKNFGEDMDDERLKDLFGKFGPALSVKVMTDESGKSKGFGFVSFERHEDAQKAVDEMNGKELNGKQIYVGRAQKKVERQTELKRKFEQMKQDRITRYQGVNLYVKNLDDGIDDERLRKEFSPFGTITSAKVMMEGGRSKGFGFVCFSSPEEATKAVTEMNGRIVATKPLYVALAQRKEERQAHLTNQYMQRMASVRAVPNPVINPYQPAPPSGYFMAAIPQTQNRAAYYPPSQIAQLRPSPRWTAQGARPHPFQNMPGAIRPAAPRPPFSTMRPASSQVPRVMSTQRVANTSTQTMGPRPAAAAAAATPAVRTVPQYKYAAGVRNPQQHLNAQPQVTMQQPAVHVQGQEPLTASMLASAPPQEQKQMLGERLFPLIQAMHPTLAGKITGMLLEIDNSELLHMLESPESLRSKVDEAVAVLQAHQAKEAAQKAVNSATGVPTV

[3] = target: DNA dC->dU-editing enzyme APOBEC-3A (Homo sapiens, UniProt P31941); experiment: Dose Response confirmation of small molecule APOBEC3A DNA Deaminase Inhibitors via a fluorescence-based single-stranded DNA deaminase assay. [Related pubchem assays (depositor defined):AID493011, AID493024]; type: functional
Sequence of DNA dC->dU-editing enzyme APOBEC-3A (P31941 whole entry): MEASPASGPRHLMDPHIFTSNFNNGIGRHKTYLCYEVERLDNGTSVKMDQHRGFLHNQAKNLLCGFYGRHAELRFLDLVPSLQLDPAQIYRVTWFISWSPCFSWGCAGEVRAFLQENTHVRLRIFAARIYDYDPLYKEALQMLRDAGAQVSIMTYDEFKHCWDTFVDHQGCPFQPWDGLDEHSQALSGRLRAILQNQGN

[4] = target: DNA dC->dU-editing enzyme APOBEC-3G (Homo sapiens, UniProt Q9HC16); type: functional;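 also: Dose-response counterscreen measuring inhibition of APOBEC3G DNA deaminase activity, run while confirming APOBEC3A inhibitors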
Sequence of DNA dC->dU-editing enzyme APOBEC-3G (Q9HC16 whole entry): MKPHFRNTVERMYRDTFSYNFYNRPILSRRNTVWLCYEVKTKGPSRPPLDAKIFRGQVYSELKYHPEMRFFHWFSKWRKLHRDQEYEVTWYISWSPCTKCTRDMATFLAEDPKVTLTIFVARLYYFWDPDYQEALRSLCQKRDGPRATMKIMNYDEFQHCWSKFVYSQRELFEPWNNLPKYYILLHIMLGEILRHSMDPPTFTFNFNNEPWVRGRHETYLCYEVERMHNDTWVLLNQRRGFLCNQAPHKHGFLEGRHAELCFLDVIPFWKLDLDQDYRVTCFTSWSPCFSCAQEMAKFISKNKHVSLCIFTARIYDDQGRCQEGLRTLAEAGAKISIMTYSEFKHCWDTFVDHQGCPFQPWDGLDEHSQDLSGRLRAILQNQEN

Coagulation factor XII = target: T1, Coagulation factor XII (Homo sapiens, UniProt P00748); type: functional;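 also: activated factor XIIa alpha cleaving a fluorogenic AMC peptide substrate; inhibitor potency from loss of enzyme activity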
T1 sequence (P00748 whole entry): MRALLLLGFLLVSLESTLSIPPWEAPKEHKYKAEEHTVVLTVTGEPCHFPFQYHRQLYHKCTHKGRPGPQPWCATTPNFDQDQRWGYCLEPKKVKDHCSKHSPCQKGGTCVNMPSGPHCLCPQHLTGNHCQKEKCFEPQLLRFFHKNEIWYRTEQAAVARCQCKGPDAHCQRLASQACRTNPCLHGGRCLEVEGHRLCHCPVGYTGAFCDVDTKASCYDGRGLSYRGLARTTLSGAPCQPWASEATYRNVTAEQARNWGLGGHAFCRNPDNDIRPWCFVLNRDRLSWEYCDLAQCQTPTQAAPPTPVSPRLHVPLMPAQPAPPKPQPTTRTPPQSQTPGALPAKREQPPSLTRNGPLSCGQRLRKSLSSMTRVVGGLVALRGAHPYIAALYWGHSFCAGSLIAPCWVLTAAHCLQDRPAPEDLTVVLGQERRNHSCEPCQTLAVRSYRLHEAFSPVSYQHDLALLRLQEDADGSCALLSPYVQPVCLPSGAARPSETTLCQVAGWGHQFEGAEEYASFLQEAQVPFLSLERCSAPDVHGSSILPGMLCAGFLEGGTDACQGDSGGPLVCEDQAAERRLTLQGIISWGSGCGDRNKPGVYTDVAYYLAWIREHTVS

[5] = target: T2, Short transient receptor potential channel 4 (Mus musculus, UniProt Q9QUQ5); experiment: mouse TRPC4 channel inhibitors, dose response, cell-based, HEK293 TRPC4/mu-opioid, Fluo-4 calcium (AID 434942); type: functional;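 also: potency of inhibitors blocking the TRPC4 calcium response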
T2 sequence (Q9QUQ5 whole entry): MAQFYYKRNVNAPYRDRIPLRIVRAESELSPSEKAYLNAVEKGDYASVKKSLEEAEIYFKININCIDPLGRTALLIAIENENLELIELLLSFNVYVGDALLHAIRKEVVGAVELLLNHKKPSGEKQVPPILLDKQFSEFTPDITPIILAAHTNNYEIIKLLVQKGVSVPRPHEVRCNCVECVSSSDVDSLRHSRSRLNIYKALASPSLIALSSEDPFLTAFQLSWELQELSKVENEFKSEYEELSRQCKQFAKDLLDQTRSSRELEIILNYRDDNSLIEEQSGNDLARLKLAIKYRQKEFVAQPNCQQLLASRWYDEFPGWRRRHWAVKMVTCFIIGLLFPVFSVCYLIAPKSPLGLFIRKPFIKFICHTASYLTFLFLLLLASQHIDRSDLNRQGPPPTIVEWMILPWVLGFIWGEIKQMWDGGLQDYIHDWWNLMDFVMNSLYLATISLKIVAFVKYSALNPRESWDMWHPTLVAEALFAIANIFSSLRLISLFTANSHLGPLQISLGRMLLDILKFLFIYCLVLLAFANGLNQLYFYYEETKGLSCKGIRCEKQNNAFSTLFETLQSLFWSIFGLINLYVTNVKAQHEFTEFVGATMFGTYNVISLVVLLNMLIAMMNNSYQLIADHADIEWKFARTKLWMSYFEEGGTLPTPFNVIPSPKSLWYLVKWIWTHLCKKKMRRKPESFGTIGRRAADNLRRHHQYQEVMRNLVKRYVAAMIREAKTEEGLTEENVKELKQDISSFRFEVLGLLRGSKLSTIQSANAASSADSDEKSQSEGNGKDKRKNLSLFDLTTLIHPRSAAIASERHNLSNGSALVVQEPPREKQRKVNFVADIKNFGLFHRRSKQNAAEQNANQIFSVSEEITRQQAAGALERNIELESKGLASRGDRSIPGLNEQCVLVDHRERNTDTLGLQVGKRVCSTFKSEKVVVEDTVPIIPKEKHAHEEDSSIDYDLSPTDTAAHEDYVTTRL

[6] = target: T3, Carboxy-terminal domain RNA polymerase II polypeptide A small phosphatase 1 (Homo sapiens, UniProt Q9GZU7); experiment: inhibitors of CTDSP1, concentration-response testing, biochemical assay, absorbance-based, actives from ultra-high-throughput screening (AID 540297); type: functional
T3 sequence (Q9GZU7 whole entry): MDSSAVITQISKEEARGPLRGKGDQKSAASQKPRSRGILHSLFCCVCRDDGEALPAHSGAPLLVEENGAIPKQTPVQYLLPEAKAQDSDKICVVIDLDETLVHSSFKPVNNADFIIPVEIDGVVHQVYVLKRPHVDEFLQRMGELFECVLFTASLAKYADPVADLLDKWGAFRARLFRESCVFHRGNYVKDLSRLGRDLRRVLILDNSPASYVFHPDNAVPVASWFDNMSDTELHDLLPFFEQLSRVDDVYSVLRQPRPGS

Large T antigen = Large T antigen (Simian virus 40, UniProt P03070); type: functional, Betapolyomavirus macacae;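 also: Confirmatory-stage PubChem screen for compounds that inhibit SV40 T antigen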
Sequence of Large T antigen (P03070 whole entry): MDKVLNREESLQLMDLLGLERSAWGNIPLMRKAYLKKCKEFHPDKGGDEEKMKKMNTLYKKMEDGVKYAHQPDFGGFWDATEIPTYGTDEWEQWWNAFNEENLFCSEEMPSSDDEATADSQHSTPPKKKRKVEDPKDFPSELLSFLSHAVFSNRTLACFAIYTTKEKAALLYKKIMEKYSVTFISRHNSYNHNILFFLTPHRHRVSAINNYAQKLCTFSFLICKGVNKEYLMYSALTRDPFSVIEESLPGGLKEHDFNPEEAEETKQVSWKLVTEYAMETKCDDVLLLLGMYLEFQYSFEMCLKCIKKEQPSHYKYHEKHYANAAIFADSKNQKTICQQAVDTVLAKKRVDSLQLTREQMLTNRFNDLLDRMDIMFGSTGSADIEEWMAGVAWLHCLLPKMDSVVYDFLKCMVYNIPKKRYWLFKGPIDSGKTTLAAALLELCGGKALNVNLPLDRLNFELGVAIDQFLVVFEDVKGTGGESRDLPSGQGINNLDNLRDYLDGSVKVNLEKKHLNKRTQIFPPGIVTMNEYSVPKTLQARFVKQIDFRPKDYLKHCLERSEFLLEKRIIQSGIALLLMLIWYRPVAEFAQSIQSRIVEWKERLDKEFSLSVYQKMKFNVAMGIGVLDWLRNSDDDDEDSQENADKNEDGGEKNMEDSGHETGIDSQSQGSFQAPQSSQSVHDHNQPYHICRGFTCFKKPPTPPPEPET

[7] = microbe, parasite or virus in culture; type: functional; conditions: Mycobacterium tuberculosis
[8] = target: T4, Replicative DNA helicase DnaB (Mycobacterium tuberculosis, UniProt P9WMR3); experiment: DnaB intein splicing inhibitors, dose response, biochemical, cell-free fluorescence (AID 449749); type: functional
T4 sequence (P9WMR3 whole entry): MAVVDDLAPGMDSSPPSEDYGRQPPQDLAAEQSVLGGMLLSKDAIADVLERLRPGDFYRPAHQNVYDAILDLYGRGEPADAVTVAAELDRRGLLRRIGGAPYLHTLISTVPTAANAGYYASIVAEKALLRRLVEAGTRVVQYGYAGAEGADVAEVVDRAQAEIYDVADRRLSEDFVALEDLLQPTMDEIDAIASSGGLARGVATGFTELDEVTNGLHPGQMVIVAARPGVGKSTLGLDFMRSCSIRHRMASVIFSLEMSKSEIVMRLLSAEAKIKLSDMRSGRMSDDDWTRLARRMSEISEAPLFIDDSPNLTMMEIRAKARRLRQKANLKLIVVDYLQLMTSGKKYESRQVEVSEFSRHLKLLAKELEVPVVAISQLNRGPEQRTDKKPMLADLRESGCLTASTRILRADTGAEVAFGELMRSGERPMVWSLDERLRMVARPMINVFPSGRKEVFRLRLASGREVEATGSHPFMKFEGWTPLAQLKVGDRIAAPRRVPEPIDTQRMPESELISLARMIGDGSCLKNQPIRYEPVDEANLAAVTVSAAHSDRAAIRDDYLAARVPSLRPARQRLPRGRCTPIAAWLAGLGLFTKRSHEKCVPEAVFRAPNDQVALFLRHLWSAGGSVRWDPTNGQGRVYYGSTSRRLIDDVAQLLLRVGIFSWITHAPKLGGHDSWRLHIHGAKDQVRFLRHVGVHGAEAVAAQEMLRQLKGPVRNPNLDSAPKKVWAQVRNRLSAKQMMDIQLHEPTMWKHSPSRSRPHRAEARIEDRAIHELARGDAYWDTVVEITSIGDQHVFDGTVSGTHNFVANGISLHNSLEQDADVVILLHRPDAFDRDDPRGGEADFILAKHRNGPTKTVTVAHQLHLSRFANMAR

Protein RecA = target: T5, Protein RecA (Mycobacterium tuberculosis, UniProt P9WHJ3); experiment: Fluorescence Cell-Free Homogeneous Dose Retest to Identify Inhibitors of RecA-Intein Splicing Activity. [Related pubchem assays (depositor defined):AID2097, AID2223, AID489010, AID492950]; type: functional
T5 sequence (P9WHJ3 whole entry): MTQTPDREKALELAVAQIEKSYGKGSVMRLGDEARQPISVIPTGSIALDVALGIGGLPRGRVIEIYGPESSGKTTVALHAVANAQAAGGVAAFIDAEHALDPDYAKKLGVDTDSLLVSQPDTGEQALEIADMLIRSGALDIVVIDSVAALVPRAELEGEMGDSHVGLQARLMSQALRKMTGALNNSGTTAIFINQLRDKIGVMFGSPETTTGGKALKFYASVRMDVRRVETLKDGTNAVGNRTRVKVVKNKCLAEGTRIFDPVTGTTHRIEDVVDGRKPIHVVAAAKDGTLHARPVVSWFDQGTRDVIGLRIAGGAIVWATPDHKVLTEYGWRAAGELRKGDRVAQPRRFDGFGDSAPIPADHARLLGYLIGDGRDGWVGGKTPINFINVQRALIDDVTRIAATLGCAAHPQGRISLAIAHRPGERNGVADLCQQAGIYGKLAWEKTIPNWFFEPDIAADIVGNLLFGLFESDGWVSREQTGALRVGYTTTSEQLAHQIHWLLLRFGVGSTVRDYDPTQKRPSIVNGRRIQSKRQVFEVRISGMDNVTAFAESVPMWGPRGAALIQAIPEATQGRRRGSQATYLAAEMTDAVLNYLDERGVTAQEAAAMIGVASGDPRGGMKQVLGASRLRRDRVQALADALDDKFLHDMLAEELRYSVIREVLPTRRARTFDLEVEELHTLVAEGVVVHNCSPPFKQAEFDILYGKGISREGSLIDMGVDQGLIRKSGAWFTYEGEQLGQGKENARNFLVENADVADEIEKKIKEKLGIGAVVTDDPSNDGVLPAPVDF

Vero = experiment: cells; type: functional; conditions: Chlorocebus sabaeus
[9] = target: Luciferin 4-monooxygenase (Photinus pyralis, UniProt P08659); experiment: firefly luciferase enzyme inhibitors, dose response, biochemical, luminescence (AID 1891)
Sequence of Luciferin 4-monooxygenase (P08659 whole entry): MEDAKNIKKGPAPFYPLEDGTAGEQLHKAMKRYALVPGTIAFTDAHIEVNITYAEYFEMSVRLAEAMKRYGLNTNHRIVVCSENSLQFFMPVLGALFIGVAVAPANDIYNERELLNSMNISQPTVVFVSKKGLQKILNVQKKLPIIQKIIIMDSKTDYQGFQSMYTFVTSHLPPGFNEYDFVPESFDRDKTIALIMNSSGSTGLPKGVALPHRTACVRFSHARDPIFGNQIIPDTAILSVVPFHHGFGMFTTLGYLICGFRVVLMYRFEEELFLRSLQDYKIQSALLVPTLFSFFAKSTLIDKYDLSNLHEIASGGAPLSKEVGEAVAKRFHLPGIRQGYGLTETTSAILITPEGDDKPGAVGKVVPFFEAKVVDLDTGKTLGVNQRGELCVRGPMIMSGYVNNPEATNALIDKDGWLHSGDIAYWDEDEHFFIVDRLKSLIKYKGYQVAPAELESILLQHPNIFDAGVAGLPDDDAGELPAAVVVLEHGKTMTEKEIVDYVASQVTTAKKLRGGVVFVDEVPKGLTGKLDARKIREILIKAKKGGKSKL

[10] = Luminescence Cell-Based Dose Confirmation HTS to Identify Inhibitors of Platelet Dense Granule Release. [Related pubchem assays: 1663 (Primary HTS), 1678 (Summary of Project)]; type: functional
cells = type: functional
[11] = target: T2, Short transient receptor potential channel 4; experiment: mouse TRPC4 channel activators, dose response, cell-based, HEK293 TRPC4/mu-opioid, Fluo-4 calcium (AID 434937); type: functional
[12] = growth suppression of PTEN-null colon cells, dose response, cell-based, HCT116 PTEN knockout (AID 1047); type: functional;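 also: HCT116 colon tumor cells with PTEN knocked out; cells exposed to compound for 60 hours before readout; potency for loss of cell viability measured by luminescence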
[13] = growth suppression of beta-catenin-knockout colon cells, dose response, cell-based, HCT116, human colon tumor (AID 1045); type: functional;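 also: HCT116 colon tumor cells with beta catenin knocked out; cells exposed to compound for 60 hours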
Genome polyprotein = Genome polyprotein (dengue virus type 2, UniProt P29990); experiment: Dengue-2 NS5 methyltransferase inhibitors, primary screen, biochemical, confirmation dose response (AID 588689); type: functional
Sequence of Genome polyprotein (P29990 2492-3391 limits assumed): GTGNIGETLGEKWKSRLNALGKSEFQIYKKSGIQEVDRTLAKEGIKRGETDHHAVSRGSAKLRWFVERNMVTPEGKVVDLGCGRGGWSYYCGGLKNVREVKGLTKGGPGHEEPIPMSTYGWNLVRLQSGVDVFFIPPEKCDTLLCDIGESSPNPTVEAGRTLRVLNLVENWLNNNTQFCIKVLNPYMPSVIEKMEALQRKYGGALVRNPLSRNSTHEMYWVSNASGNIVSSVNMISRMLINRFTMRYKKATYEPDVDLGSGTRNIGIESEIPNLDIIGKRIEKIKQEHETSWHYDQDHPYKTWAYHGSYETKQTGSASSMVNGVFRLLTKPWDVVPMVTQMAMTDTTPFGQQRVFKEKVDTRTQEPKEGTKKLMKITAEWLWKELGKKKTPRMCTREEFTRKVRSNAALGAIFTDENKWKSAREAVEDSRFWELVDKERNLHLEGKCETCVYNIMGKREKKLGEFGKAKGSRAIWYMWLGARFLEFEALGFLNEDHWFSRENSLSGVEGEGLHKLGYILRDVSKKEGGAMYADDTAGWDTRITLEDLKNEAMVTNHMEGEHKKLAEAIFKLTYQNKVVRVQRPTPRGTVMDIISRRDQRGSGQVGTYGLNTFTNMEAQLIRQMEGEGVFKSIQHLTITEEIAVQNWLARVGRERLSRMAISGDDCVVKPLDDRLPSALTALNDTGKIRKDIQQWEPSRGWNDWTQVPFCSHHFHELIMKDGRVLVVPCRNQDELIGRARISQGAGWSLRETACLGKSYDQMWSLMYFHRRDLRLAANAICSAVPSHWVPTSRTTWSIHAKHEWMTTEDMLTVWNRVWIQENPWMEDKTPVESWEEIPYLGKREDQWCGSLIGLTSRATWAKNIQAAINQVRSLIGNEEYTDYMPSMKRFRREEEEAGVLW

[14] = Shn3 3'UTR reporter inhibitors, dose response, cell-based, Clone20 osteoblasts, firefly luciferase, cherry-picked (AID 624132); type: functional;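 also: firefly luciferase luminescence from reporter carrying the Shn3 3'UTR in osteoblasts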
[15] = control 3'UTR Renilla luciferase suppression, dose response, counter-screen for Shn3 inhibitor project, cell-based, Clone20-Shn3RL, cherry-picked (AID 624133); type: functional

## CCN1C(NCCc2cccnc2)=N[C@@H](c2ccccc2)C(C(=O)OC)=C1C
[1]
  IC50: > 100 µM (inactive)
[2]
  IC50: 12 µM (active)

## CC(Oc1ccc(F)cc1)C(=O)Nc1cc(S(=O)(=O)N2CCOCC2)ccc1N1CCN(C)CC1 (centres undefined)
[3]
  IC50: 4.91 µM (active)
[4]
  IC50: 8.29 µM (active)

## O=C(NCc1ccco1)c1ccc2c(c1)CCO2
Coagulation factor XII
  IC50: > 50 µM (inactive)

## Fc1ccccc1Sc1ccccc1CNC1=NCCN1
[3]
  IC50: 1.35 µM (active)
[5]
  EC50: 0.944 µM (active)
[4]
  IC50: 2.77 µM (active)
[6]
  IC50: 4.12 µM (active)

## Cc1ccc2c(C)c(C(=O)Nc3nnc(C)s3)oc2c1
Coagulation factor XII
  IC50: > 50 µM (inactive)

## CC(=O)c1c(COC(=O)c2cccnc2)nc2ccccc2[n+]1[O-]
[3]
  IC50: 1.48 µM (active)
[4]
  IC50: 2.09 µM (active)

## N#CCn1c(CCl)nc2ccccc2c1=O
Large T antigen
  IC50: 15.1 µM (active)
[7]
  CC50: 30.8 µM (active)
[8]
  AC50: 80.6 µM (active)
Protein RecA
  EC50: 7.2 µM (active)
Vero
  CC50: 14.9 µM (active)

## COc1cc(/C=C2/C(=O)NN(c3ccc(Cl)cc3)C2=O)ccc1OC(=O)c1ccco1
Large T antigen
  IC50: 21.6 µM (active)
[9]
  EC50: > 112 µM (not active)
[10]
  EC50: > 112 µM (not active)
cells
  IC50: 16.6 µM (active)

## Cc1c(C)n(CCC#N)c2ccccc12
Coagulation factor XII
  IC50: > 50 µM (inactive)

## CC(C)C[C@H](NC(=O)C1CC(=O)N(c2ccc3c(c2)OCO3)C1)C(=O)NCc1ccco1 (some centres undefined)
[1]
  IC50: 20 µM (active)
[2]
  IC50: > 100 µM (inactive)

## CCOC(=O)C1(CCOc2ccccc2)CCN(Cc2cc(OC)ccc2OC)CC1
[11]
  EC50: 3.76 µM (active)

## COc1cc(O)ccc1C(=O)CCc1ccc(O)cc1
Large T antigen
  IC50: 13.3 µM (active)

## O=C1ON=C(c2ccccc2)/C1=C/c1ccc(-c2ccccc2[N+](=O)[O-])o1
Large T antigen
  IC50: 52.8 µM (active)
[12]
  EC50: 42.5 µM (active)
[13]
  EC50: 21.4 µM (active)
Genome polyprotein
  IC50: 11.6 µM (active)
[14]
  AC50: 7.21 µM (active)
[15]
  AC50: 23.2 µM (active)

## CCc1cc2c(=O)c(-c3nc4ccccc4n3C)coc2c(CN2CCCCC2C)c1O (centres undefined)
[1]
  IC50: 15.1 µM (active)
[2]
  IC50: 57.8 µM (active)

## CC/C(=N\NC(=S)NC(C)C)c1ccc(OC(F)F)cc1
Coagulation factor XII
  IC50: > 50 µM (inactive)

## C[n+]1cccc(/C=N/NC(=O)CC23CC4CC(CC(C4)C2)C3)c1
[1]
  IC50: > 100 µM (inactive)
[2]
  IC50: 5.14 µM (active)
[3]
  IC50: 3.04 µM (active)
[4]
  IC50: 3.28 µM (active)
